Measured values reported in ChEMBL document CHEMBL1201862, “PubChem BioAssay data set” (2004).
Each block holds one compound with its values, some of them ahead of it. The source made the active and inactive calls.

How the values were obtained:
Phospholipase D2 [1] = biological target: T1, Phospholipase D2 (Homo sapiens, UniProt O14939); test: PLD2 Cellular Concentration Response Study.; type: functional
Phospholipase D1 = Phospholipase D1 (Homo sapiens, UniProt Q13393); test: PLD1 Cellular Concentration Response Study.; type: functional
Phospholipase D2 [2] = biological target: T1, Phospholipase D2; test: Discovery of PLD2 inhibitors using the Purified Enzyme Concentration Response Assay.; type: functional
Transthyretin = Transthyretin (Homo sapiens, UniProt P02766); test: Luminescence-based cell-based high throughput dose response assay to identify activators of Transthyretin (TTR) transcription.; type: functional
[3] = viability loss in human Jurkat cells – cell-based, luminescence, cytotoxicity control for P. falciparum gametocyte viability project, dose response (AID 1117277); type: functional;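 also: potency reflects loss of cellular ATP meaning fewer viable cells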
[4] = viability inhibitors of stage V gametocytes – luminescence, dose response (AID 1117278); type: functional, cell-based;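 also: gametocytes exposed to compound for 24 hours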
[5] = biological target: Metabotropic glutamate receptor 7 (Homo sapiens, UniProt Q14831); test: potentiation of glutamate EC20 at mGlu7 – cell-based, calcium mobilization, Galpha15, dose response (AID 743384); type: functional
[6] = biological target: Glutathione-S-transferase (Schistosoma japonicum, UniProt Q26513); test: GST-antibody interaction or FRET quenching – biochemical, TR-FRET, artefact control for Vif-APOBEC3G degradation inhibitor project, dose response (AID 1117362); type: functional
[7] = biological target: T2, Mannose-6-phosphate isomerase (Homo sapiens, UniProt P34949); test: MPI inhibition at elevated mannose 6-phosphate – biochemical, fluorescence intensity, high mannose 6-phosphate, primary screen (AID 1220)
T2 sequence (P34949 whole entry): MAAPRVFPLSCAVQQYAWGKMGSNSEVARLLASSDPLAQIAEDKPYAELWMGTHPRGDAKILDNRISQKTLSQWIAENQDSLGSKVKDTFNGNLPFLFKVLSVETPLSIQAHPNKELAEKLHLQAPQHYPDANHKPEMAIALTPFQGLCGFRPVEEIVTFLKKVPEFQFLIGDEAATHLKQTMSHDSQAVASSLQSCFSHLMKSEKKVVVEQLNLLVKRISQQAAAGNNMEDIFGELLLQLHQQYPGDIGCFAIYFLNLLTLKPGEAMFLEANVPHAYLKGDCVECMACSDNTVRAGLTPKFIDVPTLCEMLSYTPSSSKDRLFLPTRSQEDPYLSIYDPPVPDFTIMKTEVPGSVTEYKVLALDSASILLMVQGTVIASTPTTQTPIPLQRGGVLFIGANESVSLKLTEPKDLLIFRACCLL

Large T antigen = Large T antigen (Simian virus 40, UniProt P03070); type: functional, Betapolyomavirus macacae;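 also: Confirmatory-stage PubChem screen for compounds that inhibit SV40 T antigen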
[8] = biological target: T3, Zinc finger protein mex-5 (Caenorhabditis elegans, UniProt Q9XUB2); test: potency of MEX-5 RNA-binding blockers – biochemical, C. elegans, fluorescence polarization, dose response (AID 1960)
T3 sequence (Q9XUB2 whole entry): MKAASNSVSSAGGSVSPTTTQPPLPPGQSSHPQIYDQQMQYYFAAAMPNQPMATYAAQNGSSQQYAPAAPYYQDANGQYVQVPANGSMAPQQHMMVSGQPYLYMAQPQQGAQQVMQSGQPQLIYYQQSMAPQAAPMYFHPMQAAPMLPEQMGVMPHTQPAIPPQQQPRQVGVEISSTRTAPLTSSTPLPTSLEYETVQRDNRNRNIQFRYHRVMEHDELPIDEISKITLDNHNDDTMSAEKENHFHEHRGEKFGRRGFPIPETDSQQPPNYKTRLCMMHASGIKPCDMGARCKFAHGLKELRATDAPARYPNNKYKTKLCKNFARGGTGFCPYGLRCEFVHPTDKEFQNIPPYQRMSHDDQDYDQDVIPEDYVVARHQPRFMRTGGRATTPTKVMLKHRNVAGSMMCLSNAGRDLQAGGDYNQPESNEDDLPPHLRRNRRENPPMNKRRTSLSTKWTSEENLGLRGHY

[9] = biological target: T4, Calpain-2 catalytic subunit (Sus scrofa, UniProt P43367); test: m-calpain protease blockers, concentration series – biochemical, fluorogenic peptide substrate, dose response (AID 1420); type: functional
T4 sequence (P43367 whole entry): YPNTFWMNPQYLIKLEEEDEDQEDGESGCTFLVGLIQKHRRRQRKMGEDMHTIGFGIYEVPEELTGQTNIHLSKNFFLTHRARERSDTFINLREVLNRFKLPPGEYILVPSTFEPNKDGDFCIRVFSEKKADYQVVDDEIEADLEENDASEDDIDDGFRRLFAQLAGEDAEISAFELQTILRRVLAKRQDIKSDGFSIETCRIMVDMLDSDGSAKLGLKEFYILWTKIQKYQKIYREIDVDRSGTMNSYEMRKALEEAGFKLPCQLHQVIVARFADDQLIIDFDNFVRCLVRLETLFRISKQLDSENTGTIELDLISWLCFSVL

[10] = biological target: T5, RNA-binding protein pos-1 (Caenorhabditis elegans, UniProt G5EF15); test: disruptors of C. elegans POS-1 RNA interaction – biochemical, fluorescence polarization, dose response (AID 1964);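 also: purified POS-1 fused to maltose binding protein made in E. coli; potency of compounds blocking POS-1 binding to fluorescent RNA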
T5 sequence (G5EF15 whole entry): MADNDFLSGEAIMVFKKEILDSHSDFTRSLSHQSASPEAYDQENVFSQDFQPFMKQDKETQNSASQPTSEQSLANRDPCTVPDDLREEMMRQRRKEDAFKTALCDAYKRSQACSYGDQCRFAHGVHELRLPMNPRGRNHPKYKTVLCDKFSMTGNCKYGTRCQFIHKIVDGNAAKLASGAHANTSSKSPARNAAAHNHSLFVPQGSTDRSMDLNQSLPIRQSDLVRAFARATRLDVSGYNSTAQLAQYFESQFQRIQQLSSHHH

[11] = biological target: T6, Histone-lysine N-methyltransferase NSD2 (Homo sapiens, UniProt O96028); type: biochemical
T6 sequence (O96028 whole entry): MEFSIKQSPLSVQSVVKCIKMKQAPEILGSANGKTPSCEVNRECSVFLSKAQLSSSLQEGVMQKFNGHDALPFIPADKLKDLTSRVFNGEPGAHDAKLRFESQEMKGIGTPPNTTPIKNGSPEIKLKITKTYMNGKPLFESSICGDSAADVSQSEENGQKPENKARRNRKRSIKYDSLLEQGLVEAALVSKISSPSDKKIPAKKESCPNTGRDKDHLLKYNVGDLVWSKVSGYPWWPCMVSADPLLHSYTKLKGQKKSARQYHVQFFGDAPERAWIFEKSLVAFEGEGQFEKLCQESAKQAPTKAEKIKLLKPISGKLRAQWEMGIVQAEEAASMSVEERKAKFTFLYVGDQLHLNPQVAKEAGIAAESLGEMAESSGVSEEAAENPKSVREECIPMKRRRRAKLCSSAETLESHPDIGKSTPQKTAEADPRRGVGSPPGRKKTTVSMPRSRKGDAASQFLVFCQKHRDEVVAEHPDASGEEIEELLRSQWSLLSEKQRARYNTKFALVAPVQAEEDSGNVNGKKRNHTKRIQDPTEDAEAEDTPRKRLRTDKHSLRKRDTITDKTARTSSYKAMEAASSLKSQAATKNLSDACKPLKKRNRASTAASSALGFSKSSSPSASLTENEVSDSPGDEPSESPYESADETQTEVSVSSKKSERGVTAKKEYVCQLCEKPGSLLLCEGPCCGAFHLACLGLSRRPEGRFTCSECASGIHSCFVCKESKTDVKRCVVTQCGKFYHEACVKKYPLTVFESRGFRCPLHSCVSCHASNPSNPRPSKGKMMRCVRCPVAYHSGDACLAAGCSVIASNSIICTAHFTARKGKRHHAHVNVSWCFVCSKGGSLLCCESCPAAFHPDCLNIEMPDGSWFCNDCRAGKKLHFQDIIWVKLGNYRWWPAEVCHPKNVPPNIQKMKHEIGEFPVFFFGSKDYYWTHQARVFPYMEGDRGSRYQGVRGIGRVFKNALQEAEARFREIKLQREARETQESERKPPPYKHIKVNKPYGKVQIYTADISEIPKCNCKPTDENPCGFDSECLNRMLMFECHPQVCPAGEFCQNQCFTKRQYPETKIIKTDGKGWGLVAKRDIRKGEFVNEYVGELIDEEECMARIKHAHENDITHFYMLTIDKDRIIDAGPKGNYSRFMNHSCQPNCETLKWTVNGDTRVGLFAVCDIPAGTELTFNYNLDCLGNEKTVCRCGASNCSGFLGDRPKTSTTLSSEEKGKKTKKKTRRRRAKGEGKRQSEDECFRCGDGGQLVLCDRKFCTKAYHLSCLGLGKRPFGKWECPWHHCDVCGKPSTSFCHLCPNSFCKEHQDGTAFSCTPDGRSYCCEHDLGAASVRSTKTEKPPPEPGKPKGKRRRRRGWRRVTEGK

[12] = biological target: RNA-editing ligase 1, mitochondrial (Trypanosoma brucei brucei, UniProt P86926); test: inhibition of trypanosome RNA editing ligase – biochemical, fluorescence, Trypanosoma brucei, dose response (AID 1117295); type: functional
Genome polyprotein = Genome polyprotein (dengue virus type 2, UniProt P29990); test: flavivirus cap methylation enzyme inhibition – biochemical, confirmation dose response, primary screen (AID 588689); type: functional
[13] = Dd2 malaria parasite growth inhibition potency – SYBR Green, dry powder samples, dose response (AID 1159566); type: functional, cell-based;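 also: potency for growth inhibition with lower SYBR green DNA signal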
[14] = growth inhibition of PfATP4-mutant resistant parasites – NITD609-resistant line, SYBR Green, dry powder, dose response (AID 1159571); type: functional, cell-based;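 also: parasites synchronized at ring stage by sorbitol before testing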
[15] = P. falciparum Dd2 growth inhibitors, dose response, SYBR Green, cherry-picked samples (AID 1159567); type: functional, cell-based
[16] = growth inhibition of yeast DHODH-expressing 3D7 parasites – SYBR Green, dry powder samples, dose response (AID 1159570); type: functional, cell-based;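 also: parasite growth measured after 72 hours of compound exposure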
[17] = glucagon-like peptide-1 release potency in STC-1, concentration-response, half-maximal inhibitory concentration in the STC-1 line (AID 1117345); type: functional, cell-based
[18] = Potency on glucagon-like peptide 1 release, dose-response in NCI-H716 cell line, half maximal inhibitory concentration (AID 1117344); type: functional, cell-based

T1 sequence (O14939 whole entry): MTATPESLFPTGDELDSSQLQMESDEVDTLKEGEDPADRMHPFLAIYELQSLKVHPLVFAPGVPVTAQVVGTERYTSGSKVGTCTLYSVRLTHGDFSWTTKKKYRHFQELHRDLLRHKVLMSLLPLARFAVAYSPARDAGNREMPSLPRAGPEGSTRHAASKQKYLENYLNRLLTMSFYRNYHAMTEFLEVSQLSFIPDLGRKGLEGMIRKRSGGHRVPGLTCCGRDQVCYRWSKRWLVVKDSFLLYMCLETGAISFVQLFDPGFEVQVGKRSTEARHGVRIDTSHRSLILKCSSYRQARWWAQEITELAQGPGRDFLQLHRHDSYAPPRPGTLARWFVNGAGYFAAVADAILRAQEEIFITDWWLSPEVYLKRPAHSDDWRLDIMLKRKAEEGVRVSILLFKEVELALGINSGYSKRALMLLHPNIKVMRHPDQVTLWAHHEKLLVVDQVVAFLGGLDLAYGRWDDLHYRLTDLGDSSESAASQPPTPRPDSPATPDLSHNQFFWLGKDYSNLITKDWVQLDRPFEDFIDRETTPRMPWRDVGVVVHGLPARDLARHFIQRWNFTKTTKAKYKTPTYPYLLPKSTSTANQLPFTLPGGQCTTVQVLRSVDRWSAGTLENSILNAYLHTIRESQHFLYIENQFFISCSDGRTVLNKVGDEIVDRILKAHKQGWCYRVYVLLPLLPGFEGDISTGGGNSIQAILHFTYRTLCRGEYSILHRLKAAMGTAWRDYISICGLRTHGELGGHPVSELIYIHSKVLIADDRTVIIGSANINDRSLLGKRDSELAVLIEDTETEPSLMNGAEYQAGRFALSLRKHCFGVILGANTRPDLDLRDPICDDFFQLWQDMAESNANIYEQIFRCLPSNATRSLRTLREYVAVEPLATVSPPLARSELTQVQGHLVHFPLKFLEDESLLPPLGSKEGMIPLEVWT
Sequence of Genome polyprotein (P29990 2492-3391 limits assumed): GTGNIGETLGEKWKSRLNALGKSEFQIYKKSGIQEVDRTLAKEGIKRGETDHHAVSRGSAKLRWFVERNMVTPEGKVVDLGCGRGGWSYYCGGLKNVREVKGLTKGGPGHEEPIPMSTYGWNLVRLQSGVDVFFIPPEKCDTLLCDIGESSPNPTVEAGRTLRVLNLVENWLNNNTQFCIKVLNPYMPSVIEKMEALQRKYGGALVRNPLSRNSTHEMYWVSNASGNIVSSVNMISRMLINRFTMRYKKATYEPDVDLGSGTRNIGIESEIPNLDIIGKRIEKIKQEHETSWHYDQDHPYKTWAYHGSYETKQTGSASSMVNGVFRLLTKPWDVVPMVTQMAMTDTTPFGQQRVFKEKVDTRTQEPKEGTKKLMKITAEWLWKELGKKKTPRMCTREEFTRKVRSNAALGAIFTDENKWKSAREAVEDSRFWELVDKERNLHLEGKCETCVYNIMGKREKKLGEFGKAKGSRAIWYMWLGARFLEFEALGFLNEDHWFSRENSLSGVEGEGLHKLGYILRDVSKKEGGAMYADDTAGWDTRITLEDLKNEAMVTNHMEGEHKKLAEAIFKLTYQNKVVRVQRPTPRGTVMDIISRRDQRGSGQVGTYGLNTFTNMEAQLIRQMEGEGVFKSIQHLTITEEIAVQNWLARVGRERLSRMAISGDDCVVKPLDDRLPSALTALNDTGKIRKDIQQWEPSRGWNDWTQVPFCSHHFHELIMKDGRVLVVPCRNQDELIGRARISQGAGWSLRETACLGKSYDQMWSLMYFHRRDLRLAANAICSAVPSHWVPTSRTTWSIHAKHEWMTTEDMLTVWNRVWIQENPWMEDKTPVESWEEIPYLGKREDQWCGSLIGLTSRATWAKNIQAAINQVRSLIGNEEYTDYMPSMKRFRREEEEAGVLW
Sequence of Phospholipase D1 (Q13393 whole entry): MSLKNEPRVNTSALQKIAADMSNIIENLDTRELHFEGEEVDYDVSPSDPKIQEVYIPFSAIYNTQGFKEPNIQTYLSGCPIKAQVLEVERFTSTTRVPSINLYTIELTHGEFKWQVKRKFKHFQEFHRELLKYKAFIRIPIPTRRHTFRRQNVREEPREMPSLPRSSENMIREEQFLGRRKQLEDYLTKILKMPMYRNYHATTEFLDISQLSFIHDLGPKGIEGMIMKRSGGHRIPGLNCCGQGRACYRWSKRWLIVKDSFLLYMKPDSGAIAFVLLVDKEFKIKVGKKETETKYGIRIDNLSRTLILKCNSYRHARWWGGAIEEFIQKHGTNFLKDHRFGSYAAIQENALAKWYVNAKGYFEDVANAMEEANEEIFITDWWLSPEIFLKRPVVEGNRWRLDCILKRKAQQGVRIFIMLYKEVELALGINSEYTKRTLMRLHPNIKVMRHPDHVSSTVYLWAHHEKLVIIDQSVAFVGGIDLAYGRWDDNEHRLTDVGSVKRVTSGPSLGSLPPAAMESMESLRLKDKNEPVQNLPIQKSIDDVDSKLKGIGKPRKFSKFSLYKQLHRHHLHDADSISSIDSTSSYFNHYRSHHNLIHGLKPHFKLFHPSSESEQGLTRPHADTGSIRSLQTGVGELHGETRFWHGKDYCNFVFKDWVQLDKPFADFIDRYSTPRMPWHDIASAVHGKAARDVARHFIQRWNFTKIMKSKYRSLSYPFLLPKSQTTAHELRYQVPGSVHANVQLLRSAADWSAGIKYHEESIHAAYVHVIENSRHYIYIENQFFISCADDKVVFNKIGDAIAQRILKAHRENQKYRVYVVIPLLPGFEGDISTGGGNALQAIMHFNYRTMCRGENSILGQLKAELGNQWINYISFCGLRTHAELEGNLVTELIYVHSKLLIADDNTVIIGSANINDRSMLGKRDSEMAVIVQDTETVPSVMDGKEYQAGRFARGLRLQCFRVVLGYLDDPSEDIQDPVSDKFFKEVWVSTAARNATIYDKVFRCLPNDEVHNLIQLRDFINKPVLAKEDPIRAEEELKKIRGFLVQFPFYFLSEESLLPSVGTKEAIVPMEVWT
Sequence of RNA-editing ligase 1, mitochondrial (P86926 whole entry): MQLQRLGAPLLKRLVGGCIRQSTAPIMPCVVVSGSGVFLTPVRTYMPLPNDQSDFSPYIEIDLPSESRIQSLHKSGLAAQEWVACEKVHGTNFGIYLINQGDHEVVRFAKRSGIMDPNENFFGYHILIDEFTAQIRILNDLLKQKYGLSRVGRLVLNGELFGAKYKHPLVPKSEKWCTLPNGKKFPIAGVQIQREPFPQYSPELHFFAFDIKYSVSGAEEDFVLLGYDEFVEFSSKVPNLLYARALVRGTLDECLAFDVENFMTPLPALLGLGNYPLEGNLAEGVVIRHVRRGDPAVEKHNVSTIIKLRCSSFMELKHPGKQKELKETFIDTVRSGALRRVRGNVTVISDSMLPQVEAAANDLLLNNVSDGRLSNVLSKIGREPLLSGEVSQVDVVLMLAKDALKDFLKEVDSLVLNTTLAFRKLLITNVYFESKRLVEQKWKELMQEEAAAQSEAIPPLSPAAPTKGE
Sequence of Metabotropic glutamate receptor 7 (Q14831 whole entry): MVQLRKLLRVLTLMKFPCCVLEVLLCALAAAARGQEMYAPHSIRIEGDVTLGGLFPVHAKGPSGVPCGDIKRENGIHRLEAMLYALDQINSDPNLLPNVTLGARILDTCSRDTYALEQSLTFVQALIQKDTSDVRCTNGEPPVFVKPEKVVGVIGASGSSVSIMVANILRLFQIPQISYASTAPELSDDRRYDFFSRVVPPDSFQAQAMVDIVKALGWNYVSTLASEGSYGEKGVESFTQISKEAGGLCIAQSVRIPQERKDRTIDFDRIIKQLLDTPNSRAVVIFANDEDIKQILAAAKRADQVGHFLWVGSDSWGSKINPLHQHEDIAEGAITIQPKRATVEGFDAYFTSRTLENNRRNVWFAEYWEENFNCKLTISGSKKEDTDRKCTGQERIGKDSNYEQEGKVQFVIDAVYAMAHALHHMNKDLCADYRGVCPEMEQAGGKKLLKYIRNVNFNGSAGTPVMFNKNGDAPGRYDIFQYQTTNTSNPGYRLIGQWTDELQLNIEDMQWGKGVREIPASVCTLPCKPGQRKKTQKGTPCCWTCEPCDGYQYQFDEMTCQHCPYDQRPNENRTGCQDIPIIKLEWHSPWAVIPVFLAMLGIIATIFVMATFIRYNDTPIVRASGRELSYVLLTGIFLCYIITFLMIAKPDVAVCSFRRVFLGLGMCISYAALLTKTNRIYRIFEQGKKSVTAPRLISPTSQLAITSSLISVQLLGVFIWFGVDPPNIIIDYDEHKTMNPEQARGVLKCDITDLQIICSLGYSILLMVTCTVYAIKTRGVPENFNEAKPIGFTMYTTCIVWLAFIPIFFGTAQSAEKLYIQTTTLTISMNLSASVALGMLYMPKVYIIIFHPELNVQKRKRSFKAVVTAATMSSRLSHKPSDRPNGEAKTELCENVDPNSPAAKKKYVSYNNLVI
Sequence of Large T antigen (P03070 whole entry): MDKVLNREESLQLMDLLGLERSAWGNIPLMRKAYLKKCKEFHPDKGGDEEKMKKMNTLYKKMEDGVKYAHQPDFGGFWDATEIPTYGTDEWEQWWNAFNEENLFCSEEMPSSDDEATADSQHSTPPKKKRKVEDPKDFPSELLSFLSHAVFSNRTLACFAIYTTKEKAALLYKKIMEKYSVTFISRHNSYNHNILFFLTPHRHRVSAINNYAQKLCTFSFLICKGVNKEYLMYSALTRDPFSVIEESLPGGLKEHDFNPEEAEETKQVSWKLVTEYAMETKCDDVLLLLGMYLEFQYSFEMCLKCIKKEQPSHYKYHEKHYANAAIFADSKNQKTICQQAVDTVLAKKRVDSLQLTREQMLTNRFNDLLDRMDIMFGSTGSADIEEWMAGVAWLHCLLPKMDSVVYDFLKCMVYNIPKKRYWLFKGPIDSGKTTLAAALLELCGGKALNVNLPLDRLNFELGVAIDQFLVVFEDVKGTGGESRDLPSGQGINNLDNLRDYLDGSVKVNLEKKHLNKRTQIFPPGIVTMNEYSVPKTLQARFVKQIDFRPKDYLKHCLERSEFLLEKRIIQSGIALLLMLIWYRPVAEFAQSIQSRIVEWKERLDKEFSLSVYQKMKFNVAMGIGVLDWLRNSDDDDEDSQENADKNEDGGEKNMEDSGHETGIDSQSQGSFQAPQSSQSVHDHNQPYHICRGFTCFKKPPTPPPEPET

SMILES: O=C(NCCN1CCC2(CC1)C(=O)NCN2Cc1cccnc1)c1cc2ccccc2o1
IC50 (Phospholipase D2 [1]): 2.5 µM (active)
IC50 (Phospholipase D1): 20 µM (active)
IC50 (Phospholipase D2 [2]): 12.5 µM (active)

EC50 (Transthyretin): > 167 µM (inactive)
SMILES: C/C(=N\Nc1ncc(Br)cn1)c1cccc([N+](=O)[O-])c1

SMILES: CSc1nccc(-c2cc(Cl)sc2Cl)n1
IC50 [3]: > 83.3 µM (inactive)
IC50 [4]: > 109 µM (inactive)

EC50 [5]: 2.4 µM (active)
SMILES: COC(=O)c1ccc(-n2c(C)cc(C(=O)COc3ccc(NC(C)=O)cc3)c2C)cc1

IC50 [6]: > 100 µM (active)
IC50 [7]: > 50 µM (not active)
IC50 (Large T antigen): 58.4 µM (active)
SMILES: CN(C(=S)Nc1cccnc1)c1ccc(O)cc1

EC50 [8]: 0.868 µM (active)
IC50 [9]: > 50 µM (not active)
EC50 [10]: 35.5 µM (active)
IC50 [7]: 19.4 µM (active)
AC50 [11]: 17.3 µM (active)
IC50 [12]: > 96.6 µM (inactive)
IC50 (Genome polyprotein): 33.6 µM (active)
SMILES: CCOC(=O)c1ccc(CC(=O)c2ccc(O)c(O)c2O)o1

SMILES: COc1cccc(C#Cc2cnc3c(c2)C(=O)N([C@@H](C)CO)C[C@H](C)[C@@H](CN(C)C(=O)C2CCCCC2)O3)c1
AC50 [13]: 0.635 µM (active)
AC50 [14]: 0.972 µM (active)
AC50 [15]: 0.889 µM (active)
AC50 [16]: 0.783 µM (active)

SMILES: CC(C)(C)CC(C)(C)c1ccc(O)cc1
IC50 [17]: 8.37 µM (inactive)
IC50 [18]: 25.9 µM (inactive)
